Measured values as given in article PMC13144739, “Global analysis of cancer cell responses to USP9X inhibition” (The EMBO Journal, 2026).

Experiments:
[1] = molecular target: T1, USP9X/USP24 chimera Δβ (Homo sapiens, UniProt Q93008, A1766S/D1761E/DEL1924-1943/K1759R/L1762V/Y1757F); test: Ub-Rho cleavage assay, USP9X/USP24 chimera Δβ; format: biochemical
T1 construct: His/SUMO (pOPIN-S vector) (N, cleaved yes); made in house; host or cells: E. coli BL21
Description: An expression construct for the USP9X catalytic domain (aa 1551–1970, […]: Q93008-1), was codon optimised for bacterial expression, synthesised in gBlock format (Integrated DNA Technologies) and cloned into the pOPIN-S vector (Berrow et al, [2007]), which was digested with KpnI and HindIII using In-Fusion™ HD cloning (Takara Clontech). […] For the USP9X Δβ catalytic domain a deletion construct ΔE1924-K1943 and for USP9X/USP24 chimera, a construct with USP9X Y1757-A1766 replaced with the USP24 (NCBI Reference Sequence: NP_056121) aa motif […] was used. All constructs were confirmed by Sanger sequencing (AGRF).
The reaction was stopped through the addition of 10 mM citric acid. The assay was performed in 384-well format with a total reaction volume of 16 µL. Data was collected using the ClarioSTAR plate reader (BMG Labtech) at an emission of 535 nm. […] IC50 values presented in our study are the mean of three independent biological repeats unless indicated otherwise.

[2] = molecular target: T2, USP9X catalytic domain (Homo sapiens, UniProt Q93008); test: K48-linked di-ubiquitin cleavage assay; format: biochemical; details: 50 µM compound
T2 construct: His/SUMO (pOPIN-S vector) (N, cleaved yes); made in house; host or cells: E. coli BL21
T2 sequence (Q93008 1551-1970): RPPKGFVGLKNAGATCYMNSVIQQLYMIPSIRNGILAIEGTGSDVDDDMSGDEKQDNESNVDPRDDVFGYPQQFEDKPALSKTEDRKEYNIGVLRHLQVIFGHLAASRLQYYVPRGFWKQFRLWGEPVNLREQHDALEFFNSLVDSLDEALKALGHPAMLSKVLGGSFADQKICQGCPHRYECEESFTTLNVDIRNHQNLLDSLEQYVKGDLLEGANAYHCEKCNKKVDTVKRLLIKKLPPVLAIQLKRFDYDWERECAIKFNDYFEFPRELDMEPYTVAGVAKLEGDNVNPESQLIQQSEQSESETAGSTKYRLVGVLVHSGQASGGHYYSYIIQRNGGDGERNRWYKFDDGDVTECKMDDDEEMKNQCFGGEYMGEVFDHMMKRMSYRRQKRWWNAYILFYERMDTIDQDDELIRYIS
Experimental: For inhibitor activity assays, USP9X catalytic domain (di-ubiquitin cleavage assay: 750 nM, ubiquitin-probe assays: 2.5 µM) was pre-incubated with USP9X inhibitors for 30 min at ambient temperature and subsequently mixed with di-ubiquitin (final concentration 2 µM) in assay buffer (25 mM Tris [pH 8.0], 150 mM NaCl, 10 mM DTT) at pH 8.0 or was mixed with ubiquitin-propargylamide (Ub-PA)/ubiquitin-vinyl sulfonate (Ub-VS) probes at a final concentration of 10 µM in assay buffer. For both assays, the mixture was incubated over a time course, and the reaction was stopped by mixing samples with 2× LDS sample buffer (Invitrogen) supplemented with 3% (v/v) 2-mercaptoethanol. All protein samples were run on a 4–12% Bis-Tris SDS-PAGE gradient gel (Invitrogen) for 60 min at 140 V. The gel was stained with InstantBlue® (Abcam) and imaged.

[3] = system: 57 human cancer cell lines; test: NCI-60 cancer cell panel; format: cell-based; details: 72 h, 3 days, in five cell lines across three cancer types, read-out: cell growth inhibition
Experimental: (§1) Inhibitors were tested at 10 µM. Data shown is the mean of two technical replicates and is shown relative to the no-drug control, and relative to the time zero number of cells.

[4] = system: lymphoma line SR; test: NCI-60 cancer cell panel, SR; format: cell-based, human; details: 10 µM, 3 days
Experimental: as §1

[5] = system: MiaPaca2 cells; test: Colony formation assay, MiaPaca2; format: cell-based, human; details: 10 µM, 7–12 days
Experimental: (§2) Cells were seeded at low density (200–4000 cells per well) after initial optimisation in a six-well tissue culture-treated plate (Falcon). Twenty-four hours post seeding, media was replaced, and the inhibitor was added. Cells were left to grow into colonies between 7 and 12 days, depending on the cell line. For analysis, the media was removed, and the cells were fixed with 10% (w/v) formalin for 10 min. Colonies were stained with crystal violet (Sigma-Aldrich, 0.5% [w/v] in 20% [v/v] MeOH) for 10 min and washed thrice with distilled H2O. Plates were imaged using the ChemiDoc imaging system (Bio-Rad) and analysed using the ImageJ ColonyArea plugin as described previously (Guzmán et al, [2014]).

[6] = system: MDA-MB-231 cells; test: Colony formation assay, MDA-MB-231; format: cell-based, human; details: 10 µM, 7–12 days
Experimental: as §2

[7] = system: HUVEC; test: Colony formation assay, HUVEC; format: cell-based, human; details: 10 µM, 7–12 days
Experimental: as §2

T1 sequence (Q93008 with tags, fused parts or gaps Y1757F/K1759R/D1761E/L1762V/A1766S/DEL1924-1943): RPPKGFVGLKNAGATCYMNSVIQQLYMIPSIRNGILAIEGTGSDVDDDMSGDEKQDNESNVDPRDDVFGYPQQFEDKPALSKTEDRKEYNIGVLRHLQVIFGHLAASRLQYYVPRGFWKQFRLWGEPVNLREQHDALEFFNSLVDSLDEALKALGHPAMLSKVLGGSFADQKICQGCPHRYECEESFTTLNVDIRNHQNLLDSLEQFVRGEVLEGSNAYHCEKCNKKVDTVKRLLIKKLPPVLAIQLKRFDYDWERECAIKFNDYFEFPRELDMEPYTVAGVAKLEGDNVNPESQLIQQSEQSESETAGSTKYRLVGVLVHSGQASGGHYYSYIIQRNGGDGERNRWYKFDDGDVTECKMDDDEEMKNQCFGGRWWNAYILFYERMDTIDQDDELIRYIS

Q: Which “activity of USP9X/USP24 chimera Δβ in presence of compound” value [1] does the source give for `Cc1[nH]c2ccc(C(=O)N3CCN(S(=O)(=O)c4ccc5c(c4)OCCO5)CC3)cc2c1C` [WEHI-092] here?
A: remained fully active at concentrations up to 10 µM

Q: And the “cleavage of K48-linked di-ubiquitin” value [2]?
A: inhibited cleavage of K48-linked di-ubiquitin

Q: What about the inhibition at 10 µM [3] of the same compound?
A: > 50%

Q: What about the “cell killing, SR” value [4] of the same compound?
A: cell death

Q: And the “clonogenic potential, MiaPaca2” value [5]?
A: strong decrease in proliferative capacity

Q: What about the “clonogenic potential, MDA-MB-231” value [6] of the same compound?
A: strong decrease in proliferative capacity

Q: What about the “clonogenic potential, HUVEC” value [7] of the same compound?
A: limited or no effects
